Test results reported in ChEMBL document CHEMBL1201862, “PubChem BioAssay data set” (2004).
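Cells were grown in 96-well plates and exposed to each compound for 48 hours at five concentrations; endpoints were interpolated linearly between bracketing concentrations, or set to the highest concentration if not reached. Abbreviation: GI50, concentration required for 50% inhibition of growth.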 Calls of active or inactive are those of the source. Rule as the data show it: active = GI50 up to about 1.1 µM and inactive = higher.

Columns and labels:
Test in all cases: DTP human tumour cell line panel, 48 h
[1] = tested on: NCI/ADR-RES
[2] = tested on: MDA-MB-435
[3] = tested on: SK-MEL-28
[4] = tested on: SF-539
[5] = tested on: OVCAR-4
[6] = tested on: UACC-62
[7] = tested on: KM12
[8] = tested on: PC-3
[9] = tested on: OVCAR-3
[10] = tested on: TK-10
[11] = tested on: MCF7
[12] = tested on: ACHN
[13] = tested on: UACC-257
[14] = tested on: CAKI-1
[15] = tested on: A549
[16] = tested on: SK-MEL-2
[17] = tested on: SNB-19
[18] = tested on: DU-145
[19] = tested on: 786-0
[20] = tested on: T47D

Compound	GI50 [1]	GI50 [2]	GI50 [3]	GI50 [4]	GI50 [5]	GI50 [6]	GI50 [7]	GI50 [8]	GI50 [9]	GI50 [10]	GI50 [11]	GI50 [12]	GI50 [13]	GI50 [14]	GI50 [15]	GI50 [16]	GI50 [17]	GI50 [18]	GI50 [19]	GI50 [20]
CC1(c2ccc(Cl)s2)CC(c2ccc(Cl)s2)=C(C#N)C(=C(C#N)C#N)N1 (stereo not given)	19.3 µM (inactive)	18.4 µM (inactive)	19.4 µM (inactive)	26.3 µM (inactive)	16.5 µM (inactive)	15.8 µM (inactive)	18 µM (inactive)	17.6 µM (inactive)	15 µM (inactive)	22.4 µM (inactive)	17.6 µM (inactive)	17.5 µM (inactive)	21.9 µM (inactive)	19.1 µM (inactive)	22.4 µM (inactive)	18.6 µM (inactive)	20.8 µM (inactive)	16.9 µM (inactive)	19.8 µM (inactive)	18.8 µM (inactive)
CCNC(=O)Cc1nc2c(N)ncnc2n1C1OC(CO)C(O)C1O (stereo not given)	> 100 µM (inactive)	> 100 µM (inactive)	> 100 µM (inactive)	> 100 µM (inactive)	23.5 µM (inactive)	> 100 µM (inactive)	> 100 µM (inactive)	> 100 µM (inactive)	> 100 µM (inactive)	> 100 µM (inactive)	23.3 µM (inactive)	> 100 µM (inactive)	> 100 µM (inactive)	> 100 µM (inactive)	> 100 µM (inactive)	48.6 µM (inactive)	> 100 µM (inactive)	> 100 µM (inactive)	> 100 µM (inactive)	58.6 µM (inactive)
CC1(C)[C@@H]2C[C@H]1C(Cc1cccc(C[C@H]3c4cc(-c5ccccn5)ncc4[C@H]4C[C@@H]3C4(C)C)c1)c1cc(-c3ccccn3)ncc12 (stereo not given in full)	4.06 µM (inactive)	0.548 µM (active)	4.93 µM (inactive)	1.28 µM (inactive)	4.58 µM (inactive)	0.499 µM (active)	0.647 µM (active)	0.875 µM (active)	0.502 µM (active)	2.44 µM (inactive)	0.547 µM (active)	0.328 µM (active)	1.48 µM (inactive)	1.74 µM (inactive)	0.518 µM (active)	12.9 µM (inactive)	1.61 µM (inactive)	0.993 µM (active)	0.32 µM (active)	1.71 µM (inactive)
Cc1ccc(S(=O)(=O)O)cc1.c1cc2c(c(NC3=NCCN3)c1)CCCC2	> 100 µM (inactive)	> 100 µM (inactive)	> 100 µM (inactive)	> 100 µM (inactive)	> 100 µM (inactive)	> 100 µM (inactive)	> 100 µM (inactive)	> 100 µM (inactive)	> 100 µM (inactive)	> 100 µM (inactive)	> 100 µM (inactive)	> 100 µM (inactive)	> 100 µM (inactive)	> 100 µM (inactive)	> 100 µM (inactive)	> 100 µM (inactive)	> 100 µM (inactive)	> 100 µM (inactive)	> 100 µM (inactive)	> 100 µM (inactive)
CC1(C)N=C(/C(Cl)=[N+](/[O-])C(=O)c2ccc(F)cc2)C(C)(C)N1O	36.6 µM (inactive)	21.4 µM (inactive)	15.8 µM (inactive)	23.7 µM (inactive)	17.9 µM (inactive)	16.7 µM (inactive)	26.2 µM (inactive)	17.5 µM (inactive)	17 µM (inactive)	16.1 µM (inactive)	19.1 µM (inactive)	19.1 µM (inactive)	17.1 µM (inactive)	20.2 µM (inactive)	45.8 µM (inactive)	17.1 µM (inactive)	> 100 µM (inactive)	29.6 µM (inactive)	14.6 µM (inactive)	25.7 µM (inactive)
O=C1c2ccccc2-c2c1c1ccccc1c(=O)n2CCO	14.6 µM (inactive)	> 72.9 µM (inactive)	> 76.6 µM (inactive)	10.6 µM (inactive)	33.2 µM (inactive)	11.5 µM (inactive)	6.38 µM (inactive)	21.5 µM (inactive)	74 µM (inactive)	> 50.5 µM (inactive)	4.41 µM (inactive)	2.17 µM (inactive)	> 79.6 µM (inactive)	3.53 µM (inactive)	5.27 µM (inactive)	39.6 µM (inactive)	6.1 µM (inactive)	13.5 µM (inactive)	6.03 µM (inactive)	23.6 µM (inactive)
O=c1[nH]/c(=C/c2ccc3c(c2)OCO3)c(=O)[nH]/c1=C/c1ccc2c(c1)OCO2	> 10 µM (inactive)	> 10 µM (inactive)	8.89 µM (inactive)	> 10 µM (inactive)	> 10 µM (inactive)	> 10 µM (inactive)	> 10 µM (inactive)	> 10 µM (inactive)	> 10 µM (inactive)	> 10 µM (inactive)	> 10 µM (inactive)	> 10 µM (inactive)	> 10 µM (inactive)	> 10 µM (inactive)	> 10 µM (inactive)	> 10 µM (inactive)	> 10 µM (inactive)	> 10 µM (inactive)	> 10 µM (inactive)	> 10 µM (inactive)
